These results are taken from patent US20240058347A1, “DOSAGES FOR HDAC TREATMENT WITH REDUCED SIDE EFFECTS” (VIRACTA THERAPEUTICS, INC., priority 2019, published 2024).

The test system of series [1] is P3HR1 Burkitt's lymphoma cells. The series can be described thus: Cell death (7AAD staining) of EBV infected cell line, Nstat 3 days then ganciclovir 3 days. In kind it is cell-based. Particulars: FIG. 4. On the procedure:
All test conditions were run in triplicate. Cell death was measured by 7AAD staining.

The next series addresses T1, HDAC6 (Homo sapiens, UniProt Q9UBN7).
T1 sequence (Q9UBN7 1-1215): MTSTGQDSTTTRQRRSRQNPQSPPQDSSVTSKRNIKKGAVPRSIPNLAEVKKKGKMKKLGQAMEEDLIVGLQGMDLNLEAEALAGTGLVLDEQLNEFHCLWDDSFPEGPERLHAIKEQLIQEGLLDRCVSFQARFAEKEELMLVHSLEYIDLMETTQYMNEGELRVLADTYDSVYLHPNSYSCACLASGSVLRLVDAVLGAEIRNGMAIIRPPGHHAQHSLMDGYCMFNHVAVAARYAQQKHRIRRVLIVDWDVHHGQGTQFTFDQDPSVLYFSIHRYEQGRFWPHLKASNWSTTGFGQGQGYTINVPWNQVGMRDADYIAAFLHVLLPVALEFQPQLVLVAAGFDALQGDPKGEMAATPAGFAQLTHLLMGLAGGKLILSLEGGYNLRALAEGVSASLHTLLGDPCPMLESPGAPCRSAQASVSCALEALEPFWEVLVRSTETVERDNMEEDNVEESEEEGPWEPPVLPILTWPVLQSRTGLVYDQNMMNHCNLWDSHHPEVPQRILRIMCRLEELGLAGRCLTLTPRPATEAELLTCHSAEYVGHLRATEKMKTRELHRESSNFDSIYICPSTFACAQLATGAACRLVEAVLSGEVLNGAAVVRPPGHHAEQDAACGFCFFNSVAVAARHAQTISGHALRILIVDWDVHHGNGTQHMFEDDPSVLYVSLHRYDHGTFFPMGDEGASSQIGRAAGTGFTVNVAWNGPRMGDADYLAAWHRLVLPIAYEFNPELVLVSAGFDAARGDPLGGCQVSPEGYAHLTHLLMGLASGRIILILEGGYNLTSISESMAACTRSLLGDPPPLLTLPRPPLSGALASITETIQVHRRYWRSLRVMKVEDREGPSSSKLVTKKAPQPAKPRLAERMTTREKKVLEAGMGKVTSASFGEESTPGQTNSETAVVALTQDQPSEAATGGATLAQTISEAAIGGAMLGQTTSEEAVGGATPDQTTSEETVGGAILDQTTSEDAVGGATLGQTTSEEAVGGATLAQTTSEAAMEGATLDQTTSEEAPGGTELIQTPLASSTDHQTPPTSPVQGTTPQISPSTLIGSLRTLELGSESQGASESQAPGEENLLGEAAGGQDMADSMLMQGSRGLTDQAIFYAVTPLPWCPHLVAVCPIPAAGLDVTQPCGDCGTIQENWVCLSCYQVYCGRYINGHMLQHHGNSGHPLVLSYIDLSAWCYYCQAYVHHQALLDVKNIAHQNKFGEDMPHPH
The series can be described thus: biochemical. As to the method: (§1) Briefly, all of the compounds are dissolved in DMSO. A series of dilutions of the compounds were prepared with 10% DMSO in HDAC assay buffer and 5 μl of the dilution was added to a 50 μl reaction so that the final concentration of DMSO is 1% in all of reactions. The compounds were pre-incubated in duplicate at RT for 1 hour in a mixture containing HDAC assay buffer, 5 μg BSA, HDAC enzyme (see Table 7) and a the particular HDACi. After 1 hour, the enzymatic reactions were initiated by the addition of HDAC substrate (BPS Bioscience) to a final concentration of 10 μM or 2 μM. The enzymatic reaction proceeded for 30 minutes at 37° C.
HDAC activity assays were performed in duplicates at each concentration. The fluorescent intensity data were analyzed using the computer software, Graphpad Prism. In the absence of the compound, the fluorescent intensity (Ft) in each data set was defined as 100% activity. In the absence of HDAC, the fluorescent intensity (Fb) in each data set was defined as 0% activity. The percent activity in the presence of each compound was calculated according to the following equation: % activity=(F−Fb)/(Ft−Fb), where F=the fluorescent intensity in the presence of the compound.
The values of % activity versus a series of compound concentrations were then plotted using non-linear regression analysis of Sigmoidal dose-response curve generated with the equation Y=B+(T−B)/1+10^((Log C50−X)×Hill Slope), where Y=percent activity, B=minimum percent activity, T=maximum percent activity, X=logarithm of compound and Hill Slope=slope factor or Hill coefficient. The IC50 value was determined by the concentration causing a half-maximal percent activity.

The target of a further series is HDAC5 (Homo sapiens, UniProt Q9UQL6). Description: in vitro HDAC inhibition assay (fluorescence), HDAC5. In kind it is biochemical. As to the method: as §1
(§2) HDAC activity assays were performed in duplicates at each concentration. The fluorescent intensity data were analyzed using the computer software, Graphpad Prism. In the absence of the compound, the fluorescent intensity (Ft) in each data set was defined as 100% activity. In the absence of HDAC, the fluorescent intensity (Fb) in each data set was defined as 0% activity. The percent activity in the presence of each compound was calculated according to the following equation: % activity=(F−Fb)/(Ft−Fb), where F=the fluorescent intensity in the presence of the compound. […]

For series [2], the system named is Histone 3 acetylation in peripheral blood mononuclear cells. The series can be described thus: H3 acetylation in peripheral blood mononuclear cells of healthy donors, flow cytometry. In kind it is cell-based, humans. The note with it: PBMC of healthy donors. An excerpt: Percentage of cells with H3 acetylation, as determined by flow cytometry, is shown.
Since H3 acetylation is a pharmacodynamic biomarker of Nstat activity, acetylation of H3 was examined in treated cells.

The target of another series is HDAC4 (Homo sapiens, UniProt P56524). The series can be described thus: in vitro HDAC inhibition assay (fluorescence), HDAC4. Format: biochemical. The note with it: HDAC4. As to the method: as §1, §2
For a further series, the target named is HDAC9 (Homo sapiens, UniProt Q9UKV0). Description: in vitro HDAC inhibition assay (fluorescence), HDAC9. The note with it: HDAC9. In kind it is biochemical. As to the method: as §1, §2
In a further series the target is HDAC1 (Homo sapiens, UniProt Q13547). Description: in vitro HDAC inhibition assay (fluorescence), HDAC1. Format: biochemical. As to the method: as §1, §2
Sequence of HDAC1 (Q13547 whole entry): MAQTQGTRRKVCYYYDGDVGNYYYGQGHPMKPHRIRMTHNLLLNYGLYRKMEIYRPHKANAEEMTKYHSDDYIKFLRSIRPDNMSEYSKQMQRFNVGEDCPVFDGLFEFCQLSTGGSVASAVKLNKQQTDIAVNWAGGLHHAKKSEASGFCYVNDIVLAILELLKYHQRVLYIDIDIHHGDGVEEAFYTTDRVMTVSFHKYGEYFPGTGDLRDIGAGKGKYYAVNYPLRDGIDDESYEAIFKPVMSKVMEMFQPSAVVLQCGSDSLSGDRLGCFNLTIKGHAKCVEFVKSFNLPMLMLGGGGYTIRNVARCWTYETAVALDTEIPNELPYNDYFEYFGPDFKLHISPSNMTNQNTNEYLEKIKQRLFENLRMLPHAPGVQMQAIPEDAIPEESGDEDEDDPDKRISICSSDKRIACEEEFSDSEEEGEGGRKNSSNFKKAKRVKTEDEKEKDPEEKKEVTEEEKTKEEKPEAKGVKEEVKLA

Sequence of HDAC4 (P56524 whole entry): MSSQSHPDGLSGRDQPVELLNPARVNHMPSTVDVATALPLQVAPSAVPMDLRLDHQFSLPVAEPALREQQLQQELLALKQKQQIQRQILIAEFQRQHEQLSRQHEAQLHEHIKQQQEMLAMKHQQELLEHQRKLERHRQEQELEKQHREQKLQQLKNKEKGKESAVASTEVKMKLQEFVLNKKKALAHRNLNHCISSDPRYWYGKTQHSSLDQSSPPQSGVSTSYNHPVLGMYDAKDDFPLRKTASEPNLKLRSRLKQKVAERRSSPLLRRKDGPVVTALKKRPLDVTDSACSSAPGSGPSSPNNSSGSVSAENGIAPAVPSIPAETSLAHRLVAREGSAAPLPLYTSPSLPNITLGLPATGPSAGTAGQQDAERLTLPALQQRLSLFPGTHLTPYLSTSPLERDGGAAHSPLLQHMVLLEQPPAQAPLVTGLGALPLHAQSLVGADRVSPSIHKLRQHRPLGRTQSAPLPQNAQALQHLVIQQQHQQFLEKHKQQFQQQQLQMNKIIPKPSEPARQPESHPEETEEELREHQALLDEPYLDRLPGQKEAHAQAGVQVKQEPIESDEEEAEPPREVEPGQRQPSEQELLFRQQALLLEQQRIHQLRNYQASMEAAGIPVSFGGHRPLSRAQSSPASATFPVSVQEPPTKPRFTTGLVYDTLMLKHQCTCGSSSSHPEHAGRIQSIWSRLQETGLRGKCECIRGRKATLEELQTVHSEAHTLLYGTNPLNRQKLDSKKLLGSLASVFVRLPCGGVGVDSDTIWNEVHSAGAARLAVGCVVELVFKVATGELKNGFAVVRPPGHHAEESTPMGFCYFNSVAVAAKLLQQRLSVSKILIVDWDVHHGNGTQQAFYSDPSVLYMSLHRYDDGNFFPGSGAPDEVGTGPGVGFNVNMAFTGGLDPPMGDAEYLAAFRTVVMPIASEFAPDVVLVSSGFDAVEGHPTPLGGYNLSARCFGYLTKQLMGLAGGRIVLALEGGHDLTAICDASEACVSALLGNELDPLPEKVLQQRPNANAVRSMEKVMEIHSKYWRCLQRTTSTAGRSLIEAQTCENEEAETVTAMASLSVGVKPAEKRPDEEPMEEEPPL
Sequence of HDAC5 (Q9UQL6 whole entry): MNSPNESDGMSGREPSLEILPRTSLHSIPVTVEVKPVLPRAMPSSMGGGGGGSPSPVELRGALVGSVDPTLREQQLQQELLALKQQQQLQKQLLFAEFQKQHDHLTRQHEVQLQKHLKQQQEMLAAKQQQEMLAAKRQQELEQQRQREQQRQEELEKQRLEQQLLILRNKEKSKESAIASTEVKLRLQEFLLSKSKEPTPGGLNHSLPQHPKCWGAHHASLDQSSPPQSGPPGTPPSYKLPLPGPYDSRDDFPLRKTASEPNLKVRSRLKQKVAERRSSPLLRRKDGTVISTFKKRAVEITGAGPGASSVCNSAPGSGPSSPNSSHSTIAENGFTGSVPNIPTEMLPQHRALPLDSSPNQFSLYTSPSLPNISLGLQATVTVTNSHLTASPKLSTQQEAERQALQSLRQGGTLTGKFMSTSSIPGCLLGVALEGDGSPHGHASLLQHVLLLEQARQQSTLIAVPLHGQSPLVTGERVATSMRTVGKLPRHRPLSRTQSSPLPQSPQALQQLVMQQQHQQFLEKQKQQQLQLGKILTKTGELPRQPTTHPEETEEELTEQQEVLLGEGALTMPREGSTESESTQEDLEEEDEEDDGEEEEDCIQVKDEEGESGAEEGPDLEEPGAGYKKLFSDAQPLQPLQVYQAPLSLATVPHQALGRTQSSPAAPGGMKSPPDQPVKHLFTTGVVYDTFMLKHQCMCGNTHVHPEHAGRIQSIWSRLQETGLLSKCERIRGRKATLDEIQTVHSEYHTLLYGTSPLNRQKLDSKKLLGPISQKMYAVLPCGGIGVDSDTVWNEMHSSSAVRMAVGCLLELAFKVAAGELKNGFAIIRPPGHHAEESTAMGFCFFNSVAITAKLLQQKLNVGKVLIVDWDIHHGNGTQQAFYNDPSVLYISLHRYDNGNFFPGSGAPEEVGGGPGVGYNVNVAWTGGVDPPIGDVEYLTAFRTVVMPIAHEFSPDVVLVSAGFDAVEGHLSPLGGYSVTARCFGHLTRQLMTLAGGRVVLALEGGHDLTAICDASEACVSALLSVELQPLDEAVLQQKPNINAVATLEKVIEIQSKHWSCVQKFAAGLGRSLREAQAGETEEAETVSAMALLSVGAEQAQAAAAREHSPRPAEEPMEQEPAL
Sequence of HDAC9 (Q9UKV0 whole entry): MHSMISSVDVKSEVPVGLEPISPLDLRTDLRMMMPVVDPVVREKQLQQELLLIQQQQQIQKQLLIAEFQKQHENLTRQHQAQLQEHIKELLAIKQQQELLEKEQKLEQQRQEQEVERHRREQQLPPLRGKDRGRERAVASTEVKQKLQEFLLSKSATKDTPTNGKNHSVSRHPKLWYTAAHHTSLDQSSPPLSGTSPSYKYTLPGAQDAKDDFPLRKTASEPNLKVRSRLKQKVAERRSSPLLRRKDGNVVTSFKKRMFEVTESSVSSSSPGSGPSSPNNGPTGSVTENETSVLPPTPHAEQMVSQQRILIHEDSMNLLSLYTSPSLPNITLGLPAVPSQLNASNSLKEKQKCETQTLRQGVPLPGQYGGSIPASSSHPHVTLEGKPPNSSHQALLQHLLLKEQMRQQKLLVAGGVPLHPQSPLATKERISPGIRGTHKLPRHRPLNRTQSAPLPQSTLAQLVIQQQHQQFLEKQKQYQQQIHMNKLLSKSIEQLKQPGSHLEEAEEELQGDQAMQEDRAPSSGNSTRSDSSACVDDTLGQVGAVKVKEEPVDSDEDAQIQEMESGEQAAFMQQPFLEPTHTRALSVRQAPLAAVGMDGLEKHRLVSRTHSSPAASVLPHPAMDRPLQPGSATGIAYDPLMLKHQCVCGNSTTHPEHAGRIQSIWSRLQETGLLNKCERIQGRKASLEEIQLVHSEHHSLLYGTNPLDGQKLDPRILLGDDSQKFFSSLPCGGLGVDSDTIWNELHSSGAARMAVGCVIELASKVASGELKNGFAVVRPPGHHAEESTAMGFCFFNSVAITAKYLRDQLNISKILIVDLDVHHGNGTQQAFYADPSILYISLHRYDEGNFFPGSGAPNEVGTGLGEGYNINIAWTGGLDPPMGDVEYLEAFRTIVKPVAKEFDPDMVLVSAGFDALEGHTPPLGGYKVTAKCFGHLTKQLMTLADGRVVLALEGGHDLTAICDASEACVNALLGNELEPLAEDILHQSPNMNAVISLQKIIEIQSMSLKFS

For orientation: IC50 means the concentration that inhibits the measured activity by half. Low readings indicate greater potency in that assay, high ones weaker potency in that assay. For the compound `O=C(NO)c1cnc(N2CC3C(C2)C3NCc2ccc3cc(F)ccc3n2)nc1` (stereo not drawn) [Nstat, 2-(6-{[(6-Fluoroquinolin-2-yl)methyl]amino}-3-azabicyclo[3.1.0]hex-3-yl)-N-hydroxypyrimidine-5-carboxamide], in series [1] (Nstat 3 days, wash, ganciclovir 3 days), the “increase of cytotoxic activity when combined with Ganciclovir” value is reported as about 40%. The “increased cytotoxicity with ganciclovir after Nstat removal” value in series [1] (after 3 days of washout) is “seen even after Nstat removal”. Moreover, the IC50 stood at 450 nM on HDAC6; 390 nM on HDAC5; 1000 nM at HDAC4; 440 nM at HDAC9; 3.6 nM on HDAC1. Besides, in series [2] (even at a dose of 100 nM, FIG. 2), the “potency in inducing elevated levels of Histone 3 acetylation” value was “much more potent than entinostat”. Besides, the “duration of effect on H3 acetylation (time-course)” value in series [2] (even at doses down to 10 nM, FIG. 3) is “long-lasting”.
